Structures are written as SMILES. pIC50: −log10 of the molar value. Counter-ions that a name gives are not always drawn.

As a reminder, the pIC50 is the IC50 on a negative log10 scale, so that one unit is a factor of ten.

CCR2, sequence (P41597 other isoform, or with tags, fused parts or gaps isoform P41597-2): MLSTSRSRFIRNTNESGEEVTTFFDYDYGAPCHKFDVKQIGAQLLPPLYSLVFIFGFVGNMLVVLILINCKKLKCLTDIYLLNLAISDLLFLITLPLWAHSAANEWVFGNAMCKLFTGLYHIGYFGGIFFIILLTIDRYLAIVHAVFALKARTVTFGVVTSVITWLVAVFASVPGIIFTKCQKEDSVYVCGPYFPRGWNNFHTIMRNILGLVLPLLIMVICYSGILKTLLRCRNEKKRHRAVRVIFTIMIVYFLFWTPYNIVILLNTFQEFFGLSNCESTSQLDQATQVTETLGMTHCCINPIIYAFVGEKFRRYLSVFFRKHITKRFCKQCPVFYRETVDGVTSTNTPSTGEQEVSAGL

This assay has as its target CCR2 (Homo sapiens (Human), UniProt P41597). Kind of assay: MCP-1 Receptor Binding Assay in THP-1 Cells. Particulars: 0.5 nM 125I labeled MCP-1, 2 hours at 30° C., average of the two most similar values where more than one IC50, read-out: Inhibition of MCP-1 Binding IC50 CCR2 Binding. The protocol: Compounds of the invention were subjected to various representative biological tests. […] MCP-1 Receptor Binding Assay in THP-1 Cells Human monocytic cell line THP-1 cells were obtained from American Type Culture Collection (Manassas, Va., USA). The THP-1 cells were grown in RPMI-1640 (RPMI: Roswell Park Memorial Institute Medium-cell culture growth media) supplemented with 10% fetal bovine serum in a humidified 5% CO2 atmosphere at 37° C. The cell density was maintained between […].
THP-1 (cells were incubated with 0.5 nM ^125I labeled MCP-1 (Perkin-Elmer Life Sciences, Inc. Boston, Mass.) in the presence of varying concentrations of either unlabeled MCP-1 (R & D Systems, Minneapolis, Minn.) or test compound for 2 hours at 30° C. in a 96 well plate. Cells were then harvested onto a filter plate, dried, and 20 μL of Microscint 20 was added to each well. Plates were counted in a TopCount NXT, Microplate Scintillation & Luminescence Counter (Perkin-Elmer Life Sciences, Inc. Boston, Mass.). Blank values (buffer only) were subtracted from all values and drug treated values were compared to vehicle treated values. 1 μM cold MCP-1 was used for nonspecific binding.
Regarding `O=C(O)C(N[C@H]1CC[C@H](c2c[nH]c3ccccc32)CC1)C1CCN(C(=O)Nc2ccc(Cl)c(Cl)c2)CC1` (stereo partly drawn) [Example 27, 2-[4-(1H-Indol-3-yl)-trans-cyclohexylamino]-2-[N-(3,4-dichlorophenyl)-piperidine-1-carboxamid-4-yl]-acetic acid hydrochloride], the pIC50 was 6.64.
`CNC(=O)C(NC1CCC(c2c[nH]c3ccccc23)CC1)C1CCN(C(=O)/C=C/c2cc(F)c(F)c(F)c2)CC1` (stereo not drawn) [Example 53, N-Methyl-2-{[4-(1H-Indol-3-yl)-cyclohexylamino]-2-[1-(trans-3,4,5-trifluorocinnamoyl)-piperidin-4-yl]}-acetamide]: the pIC50 was 6.01.
The same measure for `NC(=O)C(NC1CCC(c2c[nH]c3ccccc23)CC1)C1CCN(C(=O)/C=C/c2ccc(OC(F)(F)F)cc2)CC1` (stereo not drawn) [Example 21, 2-[4-(1H-Indol-3-yl)-cyclohexylamino]-2-[1-(trans-4-(trifluoromethoxy)cinnamoyl)piperidin-4-yl]-acetamide]: 6.31.
As to `NC(=O)C(NC1CCC(c2c[nH]c3ccccc23)CC1)C1CCN(C(=O)/C=C/c2ccc3c(c2)OC(F)(F)O3)CC1` (stereo not drawn) [Example 17, 2-[4-(1H-Indol-3-yl)-cyclohexylamino]-2-[1-(trans-3-(2,2-difluoro-1,3-benzodioxol-5-yl)prop-2-enoyl)piperidin-4-yl]-acetamide], the pIC50 is 6.75.
The same measure for `NC(=O)C(NC1CCC(c2c[nH]c3ccccc23)CC1)C1CCN(C(=O)/C=C/c2ccc(Cl)cc2)CC1` (stereo not drawn) [Example 14, 2-[4-(1H-Indol-3-yl)-cyclohexylamino]-2-[1-(trans-4-chloro-cinnamoyl)piperidin-4-yl]-acetamide]: 6.89; for `NC(=O)C(NC1CCC(c2c[nH]c3cccnc23)CC1)C1CCN(C(=O)/C=C/c2cc(F)c(F)c(F)c2)CC1` (single isomer, unassigned) [Example 39a, 2-[4-(1H-pyrrolo[3,2-b]pyridin-3-yl)cyclohexyl]amino-2-[1-(trans-3,4,5-trifluorocinnamoyl)-piperidin-4-yl]-acetamide]: 7.60; for `CCOC(=O)c1cccc(NC(=O)N2CCC(C(NC3CCC(c4c[nH]c5ccccc45)CC3)C(N)=O)CC2)c1` (centres unmarked) [Example 19, 2-[4-(1H-Indol-3-yl)-cyclohexylamino]-2-[N-(3-{ethoxycarbonyl}-phenyl)piperidine-1-carboxamid-4-yl]-acetamide]: 7.24.
For `COC(=O)C(NC1CCC(c2c[nH]c3ccccc23)CC1)C1CCN(C(=O)/C=C/c2cc(F)c(F)c(F)c2)CC1` (centres unmarked) [Example 49b], the pIC50 is 6.12.
The same measure for `NC(=O)C(NC1CCC(c2c[nH]c3ccccc23)CC1)C1CCN(C(=O)Nc2cc(F)cc(F)c2)CC1` (centres unmarked) [Example 30, 2-[4-(1H-Indol-3-yl)-cyclohexylamino]-2-[N-(3,5-difluorophenyl)piperidine-1-carboxamid-4-yl]-acetamide]: 6.15.
The same measure for `NC(=O)C(NC1CCC(c2c[nH]c3ccccc23)CC1)C1CCN(C(=O)/C=C/c2ccccc2F)CC1` (stereo not drawn) [Example 8, 2-[4-(1H-Indol-3-yl)-cyclohexylamino]-2-[1-(trans-2-fluorocinnamoyl)-piperidin-4-yl]-acetamide]: 6.57; for `NC(=O)C(NC1CCC(c2c[nH]c3ccncc23)CC1)C1CCN(C(=O)/C=C/c2ccc(F)cc2)CC1` (single isomer, unassigned) [Example 47b, 2-[4-(1H-pyrrolo[3,2-c]pyridin-3-yl)cyclohexyl]amino-2-[1-(trans-4-fluorocinnamoyl)-piperidin-4-yl]-acetamide]: 6.19.
In the case of `O=C(O)C(N[C@H]1CC[C@H](c2c[nH]c3ccccc32)CC1)C1CCN(C(=O)/C=C/c2cc(F)c(F)c(F)c2)CC1` (stereo partly drawn) [Example 26, 2-[4-(1H-Indol-3-yl)-cyclohexylamino]-2-[1-(trans-3,4,5-trifluorocinnamoyl)-piperidin-4-yl]-acetic acid hydrochloride] it was 7.70; in that of `NC(=O)C(NC1CCC(c2c[nH]c3ccccc23)CC1)C1CCN(C(=O)/C=C/c2ccc(C(F)(F)F)cc2)CC1` (stereo not drawn) [Example 13, 2-[4-(1H-Indol-3-yl)-cyclohexylamino]-2-[1-(trans-4-{trifluoromethyl}-cinnamoyl)piperidin-4-yl]-acetamide], 6.87; in that of `NC(=O)C(NC1CCC(c2c[nH]c3ccccc23)CC1)C1CCN(C(=O)/C=C/c2ccc3c(c2)CCC3)CC1` (stereo not drawn) [Example 12, 2-[4-(1H-Indol-3-yl)-cyclohexylamino]-2-[1-(trans-3-indan-5-ylprop-2-enoyl)piperidin-4-yl]-acetamide], 6.92.
With `NC(=O)C(NC1CCC(c2c[nH]c3ccccc23)CC1)C1CCN(C(=O)/C=C/c2ccccc2)CC1` (stereo not drawn) [Example 18, 2-[4-(1H-Indol-3-yl)-cyclohexylamino]-2-[1-(trans-cinnamoyl)piperidin-4-yl]-acetamide], the pIC50 was 6.72.
On to `COC(=O)C(NC1CCC(c2c[nH]c3ccccc23)CC1)C1CCN(C(=O)/C=C/c2cc(F)c(F)c(F)c2)CC1` (stereo not drawn) [Example 49a, Methyl 2-[4-(1H-indol-3-yl)-trans-cyclohexylamino]-2-[1-(trans-3,4,5-trifluorocinnamoyl)piperidin-4-yl]-acetate], for which the pIC50 is 6.39.
In the case of `COC(=O)C(N[C@H]1CC[C@H](c2c[nH]c3ccccc32)CC1)C1CCN(C(=O)/C=C/c2cc(F)cc(F)c2)CC1` (stereo partly drawn) [Example 24, Methyl 2-[4-(1H-indol-3-yl)-trans-cyclohexylamino]-2-[1-(trans-3,5-difluorocinnamoyl)piperidin-4-yl]-acetate], the pIC50 was 6.41.
In the case of `CCOC(=O)c1ccc(NC(=O)N2CCC(C(NC3CCC(c4c[nH]c5ccccc45)CC3)C(N)=O)CC2)cc1` (centres unmarked) [Example 22, 2-[4-(1H-Indol-3-yl)-cyclohexylamino]-2-[N-(4-{ethoxycarbonyl}-phenyl)piperidine-1-carboxamid-4-yl]-acetamide] it was 6.26; in that of `NC(=O)C(NC1CCC(c2c[nH]c3ccncc23)CC1)C1CCN(C(=O)/C=C/c2ccc(F)cc2)CC1` (single isomer, unassigned) [Example 47a, 2-[4-(1H-pyrrolo[3,2-c]pyridin-3-yl)cyclohexyl]amino-2-[1-(trans-4-fluorocinnamoyl)-piperidin-4-yl]-acetamide], 6.39.
In the case of `NC(=O)C(NC1CCC(c2c[nH]c3ncccc23)CC1)C1CCN(C(=O)/C=C/c2cc(F)cc(F)c2)CC1` (stereo not drawn) [Example 46, R,S-2-[4-(1H-pyrrolo[2,3-b]pyridin-3-yl)cyclohexyl]amino-2-[1-(trans-3,5-difluorocinnamoyl)-piperidin-4-yl]-acetamide] it was 6.48; in that of `CN(C)C(=O)C(NC1CCC(c2c[nH]c3ccccc23)CC1)C1CCN(C(=O)/C=C/c2cc(F)c(F)c(F)c2)CC1` (stereo not drawn) [Example 54, N,N-Dimethyl-2-{[4-(1H-Indol-3-yl)-cyclohexylamino]-2-[1-(trans-3,4,5-trifluorocinnamoyl)-piperidin-4-yl]}-acetamide], 6.01.
In the case of `NC(=O)C(NC1CCC(c2c[nH]c3ccccc23)CC1)C1CCN(C(=O)Nc2ccc(Cl)c(Cl)c2)CC1` (single isomer, unassigned) [Example 4b, 2-[4-(1H-Indol-3-yl)-cyclohexylamino]-2-[N-(3,4-dichlorophenyl)piperidine-1-carboxamid-4-yl]-acetamide] it was 8.10; in that of `NC(=O)C(NC1CCC(c2c[nH]c3ccccc23)CC1)C1CCN(C(=O)/C=C/c2cccc(C(F)(F)F)c2)CC1` (stereo not drawn) [Example 10, 2-[4-(1H-Indol-3-yl)-cyclohexylamino]-2-[1-(trans-3-{trifluoromethyl}-cinnamoyl)piperidin-4-yl]-acetamide], 7.12.

(Values after patent publication US8921559B2, “4-substituted-cyclohexylamino-4-piperidinyl-acetamide antagonists of CCR2” (Janssen Pharmaceutica NV, priority 2010, dated 2014).)
